Target: T1, interaction between recombinantly-expressed B2 subunit and pure rabbit muscle F-actin (Homo sapiens, UniProt P21281)
T1 construct: made in house
Assay: pelleting assay of B subunit binding to F-actin
Settings: not given
Description: Twenty-one small molecules are tested for their ability to block interaction between recombinantly-expressed B2 subunit and pure rabbit muscle F-actin.
Recombinant B subunit (1 μM) plus/minus F-actin (2 μM)) plus/minus 100 uM inhibitor compounds were incubated for 10 minutes in 20 mM Tris/HCl (pH 7.5), 100 mM NaCl, 1 mM MgCl2, 0.2 mM CaCl2, 0.5 mM ATP, 0.2 mM DTT, then subjected to ultracentrifugation at 180,000×g for 45 min. Supernatants and pellets were collected in SDS-PAGE sample buffer, separated by SDS-PAGE, stained with Coomassie Blue, and densitometry was performed using a Flurchem 8000 (Alpha Innotech, San Leandro Calif.).
The percent inhibition was determined by densitometry of SDS-PAGE gels. The raw densitometric number obtained of the recombinant B subunit band that was pelleted with F-actin, but with no compound present, represented 0% inhibition. The amount of the raw densitometric number of the amount of recombinant B subunit that pelleted with no actin present, but with compound, represented 100% inhibition. The amount of recombinant B subunit that pelleted with actin and the compound being tested was placed as a percentage assuming a linear response.

T1 sequence (P21281 whole entry): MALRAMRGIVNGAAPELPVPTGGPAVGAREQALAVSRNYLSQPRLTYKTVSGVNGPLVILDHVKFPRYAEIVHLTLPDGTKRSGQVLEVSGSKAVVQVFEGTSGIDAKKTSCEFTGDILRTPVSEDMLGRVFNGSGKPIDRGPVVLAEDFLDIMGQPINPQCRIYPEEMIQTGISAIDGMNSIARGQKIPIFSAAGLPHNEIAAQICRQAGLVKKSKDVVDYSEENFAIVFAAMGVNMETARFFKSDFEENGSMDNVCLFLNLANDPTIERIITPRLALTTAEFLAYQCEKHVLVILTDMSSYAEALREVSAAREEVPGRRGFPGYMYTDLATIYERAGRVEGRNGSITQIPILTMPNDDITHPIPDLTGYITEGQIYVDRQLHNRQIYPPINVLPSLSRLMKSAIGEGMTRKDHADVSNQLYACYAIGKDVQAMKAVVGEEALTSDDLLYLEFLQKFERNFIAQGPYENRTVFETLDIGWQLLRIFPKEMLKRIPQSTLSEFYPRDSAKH

| Molecule | inhibition at 100 µM [%] |
| --- | --- |
| CN1N(C)C12CCC1(C)C(CCC3C1CCC1(C)C3CCC1(C)O)C2 (stereo not drawn) [Binhib 3, 1′,2′,10,13,17-pentamethylhexadecahydrospiro[cyclopenta[a]phenanthrene-3,3′-diaziridin]-17-ol] | 7 |

Same assay, conditions: 100 uM inhibitor compound; recombinant B subunit 1 μM, F-actin 2 μM; densitometry of SDS-PAGE gels

| Molecule | % inhibition [%] |
| --- | --- |
| 2-((4-methyl-1-piperazinyl)methyl)-15-indeno[1,2,3-de]quinazolin-1-ol [Binhib 15] | 0 |
| Clc1cc(Cl)c(C[N+]23CN4CN(CN(C4)C2)C3)cc1Cl.[Cl-] [Binhib 1, {3,5,7-Triaza-1-azoniatricyclo[3.3.1.13,7]decane}{1-[(2,}4,5-trichlorophenyl)methyl]-, chloride] | 5 |
| Brc1ccc(C[N+]23CN4CN(CN(C4)C2)C3)cc1.[Br-] [Binhib 9, 3-(5,7-Triaza-1-azoniatricyclo[3.3.1.13,7]decane) (1-[(4-bromophenyl)methyl])bromide] | 21 |
| BrC=C(Br)C[N+]12CN3CN(CN(C3)C1)C2 [Binhib 18, 1-(2,3-dibromo-2-propenyl)-15,3,5,7-tetraazatricyclo[3.3.1.1˜3,7˜]decane] | 2 |
| Cc1nc2ccccc2cc1C[N+]12CN3CN(CN(C3)C1)C2 [Binhib 30, 1-((2-methyl-3-quinolinyl)methyl)-15,3,5,7-tetraazatricyclo[3.3.1.1˜3,7˜]decane] | 4 |
| COC(=O)C1CC23CCCN4CCC5(c6cccc(OC)c6N(C=O)C15CC2)C43 (stereo not drawn) [Binhib 35, methyl 1-formyl-17-methoxyaspidofractinine-3-carboxylate] | 4 |

The next lines start with the values.

| % inhibition [%] | Molecule |
| --- | --- |
| 1 | 2,4-diamino-5-(4-((2-aminoethyl)amino)-3-(hydroxy(oxido)amino)phenyl)-6-ethylpyrimidine [Binhib 33] |
| 3 | ON=C(C[N+]12CN3CN(CN(C3)C1)C2)c1ccc(I)cc1 [Binhib 10, 1-(4-iodophenyl)-2-(15,3,5,7-tetraazatricyclo[3.3.1.1˜3,7˜]dec-1-yl)ethanone oxime] |
| 5 | CC(C)Cc1ccc(C[N+]23CN4CN(CN(C4)C2)C3)cc1 [Binhib 20, 1-(4-isobutylbenzyl)-15,3,5,7-tetraazatricyclo[3.3.1.1˜3,7˜]decane] |
| 13 | O=C(C[N+]12CN3CN(CN(C3)C1)C2)c1ccc(Br)cc1 [Binhib 24, 1-(4-bromophenyl)-2-(15,3,5,7-tetraazatricyclo[3.3.1.1˜3,7˜]dec-1-yl)ethanone] |
| 0 | O=C(C[N+]12CN3CN(CN(C3)C1)C2)c1ccc2ccccc2c1 [Binhib 36, 1-(2-naphthyl)-2-(15,3,5,7-tetraazatricyclo[3.3.1.1˜3,7˜]dec-1-yl)ethanone] |
| 4 | COc1ccc(C(=O)C[N+]23CN4CN(CN(C4)C2)C3)cc1 [Binhib 41, 1-(4-methoxyphenyl)-2-(15,3,5,7-tetraazatricyclo[3.3.1.1˜3,7˜]dec-1-yl)ethanone] |

Same assay, conditions: 100 uM inhibitor compound; recombinant B subunit 1 μM, F-actin 2 μM; densitometry of SDS-PAGE gels; read-out: % inhibition

| inhibition at 100 µM [%] | Molecule |
| --- | --- |
| 0 | CCOC(=O)C(Cc1c[nH]c2ccccc12)NCCN (stereo not drawn) [Binhib 5, ethyl 2-((2-aminoethyl)amino)-3-(1H-indol-3-yl)propanoate] |
| 0 | COc1cccc(CN2CCN(N)CC2)c1 [Binhib 17, 4-(3-methoxybenzyl)-1-piperazinamine] |
| 2 | Cn1c(=O)c2nc(SSc3nc4c(=O)n(C)c(=O)n(C)c4[nH]3)[nH]c2n(C)c1=O [Binhib 31, 8,8′-disulfanediylbis(1,3-dimethyl-1H-purine-2,6(3H,9H)-dione)] |
| 3 | S=C(S)NCCN1CCNCC1 [Binhib 38, 2-(1-piperazinyl)ethylcarbamodithioic acid] |

| Molecule | inhibition at 100 µM [%] |
| --- | --- |
| C=C1C23C(CCCC2NC)CCC2(C)C4C(C(C)=O)C(O)CC4(C)CCC123 (stereo not drawn) [Binhib 26, 1-(2-hydroxy-3a,12a-dimethyl-7-(methylamino)-6-methylenehexadecahydro-cyclopenta[a]cyclopropa[e]phenanthren-1-yl)ethanone] | 0 |
